Values of other authors in patent publication US20220098283A1, “ACE2- and TMPRSS2-Targeted Compositions and Methods for Treating COVID-19” (priority 2020, published 2022).
Where two headings read alike, the source gives them in different places.

Target: hACE2 (Homo sapiens, UniProt Q9BYF1)
Conditions: 100 μM angiotensin II, 37° C., 2 hours

Chain of hACE2 (Q9BYF1 18-805): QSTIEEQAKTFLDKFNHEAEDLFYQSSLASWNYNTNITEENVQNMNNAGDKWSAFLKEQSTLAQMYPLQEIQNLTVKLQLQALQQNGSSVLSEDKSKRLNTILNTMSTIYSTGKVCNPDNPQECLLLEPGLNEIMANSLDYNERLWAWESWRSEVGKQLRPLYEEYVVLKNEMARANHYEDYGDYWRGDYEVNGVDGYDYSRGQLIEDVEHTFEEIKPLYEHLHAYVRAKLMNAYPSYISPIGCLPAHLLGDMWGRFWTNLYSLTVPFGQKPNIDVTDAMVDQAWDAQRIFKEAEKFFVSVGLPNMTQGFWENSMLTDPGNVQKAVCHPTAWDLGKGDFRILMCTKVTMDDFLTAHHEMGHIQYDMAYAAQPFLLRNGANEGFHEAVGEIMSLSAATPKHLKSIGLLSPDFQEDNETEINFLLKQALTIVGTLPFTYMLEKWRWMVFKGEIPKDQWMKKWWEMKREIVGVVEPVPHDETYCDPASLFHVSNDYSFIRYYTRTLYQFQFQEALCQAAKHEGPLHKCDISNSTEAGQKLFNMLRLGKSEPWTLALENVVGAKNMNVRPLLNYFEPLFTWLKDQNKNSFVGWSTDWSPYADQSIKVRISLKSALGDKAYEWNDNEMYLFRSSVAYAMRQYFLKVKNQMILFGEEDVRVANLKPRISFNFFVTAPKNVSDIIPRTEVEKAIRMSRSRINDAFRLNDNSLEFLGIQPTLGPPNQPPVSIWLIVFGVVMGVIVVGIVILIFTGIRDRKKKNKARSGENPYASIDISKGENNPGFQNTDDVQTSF

Row | SMILES | inhibition of hACE2 activity (angiotensin II cleavage) (inhibitor 10 mM) | inhibition of hACE2 activity (angiotensin II cleavage) (inhibitor 100 μM)
1 | O=C(O)CN(CCN(CC(=O)O)CC(=O)O)CC(=O)O [EDTA] | inhibits hACE2 activity | 
2 | O=C(O)CC(Cc1ccccc1)C(=O)O (centres unmarked) [benzyl succinate] |  | none of lisinopril, captopril, enalaprilat, and benzyl succinate (a carboxypeptidase A inhibitor) inhibits hACE2 activity
